Where two headings read alike, the source gives them in different places. Numbered stars: 1 amine (or outer) side, 2 acyl side, 3 side chain; on linkers, the order of the positions; unused ones are H or OH. Bridge positions count the residues as written; N and C are the ends. Square brackets hold non-standard residues; d marks the D form. Peptide text beside a SMILES is read from it. * marks the point of attachment. C20 diacid = O=C(O)CCCCCCCCCCCCCCCCCCC(=O)*; γGlu = O=C(O)[C@H](CCC(=O)[*:2])N[*:1]; NMeI = CC[C@H](C)[C@H](NC)C(=O)O; Sar = CNCC(=O)O
Tests used:
[1] = molecular target: T1, human amylin receptor 3 (hAMYR3) consisting of hCTR2 co-expressed with human Receptor Activity Modifying Protein 3 (hRAMP3) (Homo sapiens, UniProt O60896+P30988); assay: hAMYR3 assay: induction of cAMP (AlphaScreen cAMP Assay kit) in COS7 cells expressing hAMYR3; assay type: cell-based
T1 construct: expressed in transfected cells
T1 sequence (P30988 25-474): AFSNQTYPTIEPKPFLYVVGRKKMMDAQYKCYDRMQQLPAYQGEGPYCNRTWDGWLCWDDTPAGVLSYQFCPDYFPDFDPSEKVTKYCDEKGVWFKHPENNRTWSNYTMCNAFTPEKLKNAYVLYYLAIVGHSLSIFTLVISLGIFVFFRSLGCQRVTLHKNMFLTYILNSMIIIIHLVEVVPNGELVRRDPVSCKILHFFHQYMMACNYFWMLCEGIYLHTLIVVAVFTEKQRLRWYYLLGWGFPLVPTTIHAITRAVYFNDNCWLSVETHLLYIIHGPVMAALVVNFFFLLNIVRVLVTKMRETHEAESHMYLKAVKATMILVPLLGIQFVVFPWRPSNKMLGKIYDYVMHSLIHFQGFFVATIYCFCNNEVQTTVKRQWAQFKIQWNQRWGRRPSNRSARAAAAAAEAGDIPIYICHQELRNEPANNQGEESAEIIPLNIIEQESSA
T1 sequence (O60896 24-148 partner): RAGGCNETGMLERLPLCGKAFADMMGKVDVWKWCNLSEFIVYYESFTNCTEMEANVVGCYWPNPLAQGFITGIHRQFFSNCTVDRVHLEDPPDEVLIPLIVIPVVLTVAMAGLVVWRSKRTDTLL
Procedure, shortened: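 Stable COS7 clone co-expressing hCTR2 and hRAMP3, stimulated 15 min at 37° C with increasing peptide in Tyrode buffer pH 7.4 with 100 µM IBMX and 0.1% casein. cAMP measured by AlphaScreen after lysis; EC50 and % efficacy versus pramlintide from 4PL fit.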

[2] = molecular target: T2, human calcitonin receptor (hCTR2) (Homo sapiens, UniProt P30988); assay: hCTR2 assay: induction of cAMP (AlphaScreen cAMP Assay kit) in COS7 cells expressing hCTR2; assay type: cell-based; conditions: cAMP induction in COS7 cells expressing hCTR2; average of a minimum of 3 determinations; read-out: hCTR2 EC50
T2 construct: expressed in transfected cells
T2 sequence (P30988 25-474): T1 sequence (P30988 25-474)
Procedure, shortened: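 COS7 stable hCTR2 clone (RAMP-free); peptide dose-response 15 min 37° C in Tyrode pH 7.4 + 100 µM IBMX + 0.1% casein; lysis 10 min RT; AlphaScreen cAMP; 4PL fit.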

[3] = Solubility assessment (turbidity absorbance at 325 nm); assay type: physicochemical; conditions: stock 2 mg/ml diluted 1:1, ambient temperature (typically 25°C), n=1; for Solubility, Acetate buffer pH 4: 100 mM acetate buffer pH 4.0; for Solubility, Acetate buffer pH 5: 100 mM acetate buffer pH 5.0; for Solubility, Histidine buffer pH 6: 100 mM histidine buffer pH 6.0; for Solubility, Histidine buffer pH 7: 100 mM histidine buffer pH 7.0; for Solubility, Phosphate buffer pH 6: 100 mM phosphate buffer pH 6.0; for Solubility, Phosphate buffer pH 7: 100 mM phosphate buffer pH 7.0; for Solubility, Phosphate buffer pH 7.5: 100 mM phosphate buffer pH7.5
Procedure, shortened: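 Stock 2 mg/ml peptide, H2O/HCl pH 2.5; 1:1 into 100 mM buffers: acetate pH 4.0/5.0, His pH 6.0/7.0, phosphate pH 6.0/7.0/7.5. A280 + A325, ~25°C, n=1. Soluble ≥ 1 mg/ml if A325 ≤ 0.02.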

[4] = cAMP induction in COS7 cells expressing hAMYR3, average of a minimum of 3 determinations, read-out: hAMY R3 EC50

Row | Compound | EC50 [1, 4] [pM] | EC50 [2] [pM] | Solubility, Acetate buffer pH 4 [3] | Solubility, Acetate buffer pH 5 [3] | Solubility, Histidine buffer pH 6 [3] | Solubility, Histidine buffer pH 7 [3] | Solubility, Phosphate buffer pH 6 [3] | Solubility, Phosphate buffer pH 7 [3] | Solubility, Phosphate buffer pH 7.5 [3] | EC50 [1] [pM]
1 | CC[C@H](C)[C@@H](C(=O)N[C@@H](CC(C)C)C(=O)N[C@@H](CO)C(=O)N[C@@H](CO)C(=O)N[C@H](C(=O)N[C@@H](CCC(=O)O)C(=O)N[C@H](C(=O)NCC(=O)N[C@@H](CO)C(=O)N[C@@H](CCC(=O)O)C(=O)N[C@H](C(=O)N1CCC[C@H]1C(N)=O)[C@@H](C)O)C(C)C)[C@@H](C)O)N(C)C(=O)[C@H](C)NC(=O)CN(C)C(=O)[C@H](Cc1ccccc1)NC(=O)[C@H](CO)NC(=O)[C@H](CO)NC(=O)[C@H](CO)NC(=O)[C@H](CO)NC(=O)[C@H](CCCNC(=N)N)NC(=O)[C@H](Cc1c[nH]cn1)NC(=O)[C@H](CC(C)C)NC(=O)[C@H](Cc1ccccc1)NC(=O)[C@H](CCC(=O)O)NC(=O)[C@H](C)NC(=O)[C@H](CC(C)C)NC(=O)[C@H](CCCNC(=N)N)NC(=O)[C@@H]1CCCN1C(=O)[C@@H](NC(=O)[C@H](C)NC(=O)[C@@H]1CSSC[C@H](NC(=O)[C@H](CCCNC(=N)N)NC(=O)CC[C@H](NC(=O)CCCCCCCCCCCCCCCCCCC(=O)O)C(=O)O)C(=O)N2CCC[C@H]2C(=O)N[C@@H]([C@@H](C)O)C(=O)N[C@@H](C)C(=O)N[C@@H]([C@@H](C)O)C(=O)N1)[C@@H](C)O [Compound 143, [19CD]-isoGlu-RC()PTATC()ATPRLAEFLHRSSSSF-Gly(Me)-A-Ile(Me)-LSSTEVGSETP-NH2] ({C20 diacid-γGlu}-RCPTATCATPRLAEFLHRSSSSF[Sar]A[NMeI]LSSTEVGSETP-NH2; disulfide 2-7) | 440 | 260 | SS (SS indicates solubility ≥ 1mg/ml) | SS (SS indicates solubility ≥ 1mg/ml) | SS (SS indicates solubility ≥ 1mg/ml) | SS (SS indicates solubility ≥ 1mg/ml) | SS (SS indicates solubility ≥ 1mg/ml) | SS (SS indicates solubility ≥ 1mg/ml) | SS (SS indicates solubility ≥ 1mg/ml) | 
2 | CC[C@H](C)[C@@H](C(=O)N[C@@H](CC(C)C)C(=O)N[C@@H](CO)C(=O)N[C@@H](CO)C(=O)N[C@H](C(=O)N[C@@H](CCC(=O)O)C(=O)N[C@H](C(=O)NCC(=O)N[C@@H](CO)C(=O)N[C@@H](CCC(=O)O)C(=O)N[C@H](C(=O)N1CCC[C@H]1C(N)=O)[C@@H](C)O)C(C)C)[C@@H](C)O)N(C)C(=O)[C@H](C)NC(=O)CN(C)C(=O)[C@H](Cc1ccccc1)NC(=O)[C@H](CO)NC(=O)[C@H](CO)NC(=O)[C@H](CO)NC(=O)[C@H](CO)NC(=O)[C@H](CCCNC(=N)N)NC(=O)[C@H](Cc1c[nH]cn1)NC(=O)[C@H](CC(C)C)NC(=O)[C@H](Cc1ccccc1)NC(=O)[C@H](CCC(=O)O)NC(=O)[C@H](C)NC(=O)[C@H](CC(C)C)NC(=O)[C@H](CCCNC(=N)N)NC(=O)[C@H](C)NC(=O)[C@@H](NC(=O)[C@H](C)NC(=O)[C@@H]1CSSC[C@H](NC(=O)[C@H](CCCNC(=N)N)NC(=O)CC[C@H](NC(=O)CCCCCCCCCCCCCCCCCCC(=O)O)C(=O)O)C(=O)N[C@@H](CO)C(=O)N[C@@H]([C@@H](C)O)C(=O)N[C@@H](C)C(=O)N[C@@H]([C@@H](C)O)C(=O)N1)[C@@H](C)O [Compound 144, [19CD]-isoGlu-RC()STATC()ATARLAEFLHRSSSSF-Gly(Me)-A-Ile(Me)-LSSTEVGSETP-NH2] ({C20 diacid-γGlu}-RCSTATCATARLAEFLHRSSSSF[Sar]A[NMeI]LSSTEVGSETP-NH2; disulfide 2-7) | 240 | 110 | SS (SS indicates solubility ≥ 1mg/ml) | SS (SS indicates solubility ≥ 1mg/ml) | SS (SS indicates solubility ≥ 1mg/ml) | SS (SS indicates solubility ≥ 1mg/ml) | SS (SS indicates solubility ≥ 1mg/ml) | SS (SS indicates solubility ≥ 1mg/ml) | SS (SS indicates solubility ≥ 1mg/ml) | 
3 | CC[C@H](C)[C@@H](C(=O)N[C@@H](CC(C)C)C(=O)N[C@@H](CO)C(=O)N[C@@H](CO)C(=O)N[C@H](C(=O)N[C@@H](CCC(=O)O)C(=O)N[C@H](C(=O)NCC(=O)N[C@@H](CO)C(=O)N[C@@H](CCC(=O)O)C(=O)N[C@H](C(=O)N1CCC[C@H]1C(N)=O)[C@@H](C)O)C(C)C)[C@@H](C)O)N(C)C(=O)[C@H](C)NC(=O)CN(C)C(=O)[C@H](Cc1ccccc1)NC(=O)[C@H](CO)NC(=O)[C@H](CO)NC(=O)[C@H](CO)NC(=O)[C@H](CO)NC(=O)[C@H](CCCNC(=N)N)NC(=O)[C@H](Cc1c[nH]cn1)NC(=O)[C@H](CC(C)C)NC(=O)[C@H](Cc1ccccc1)NC(=O)[C@H](CCC(=O)O)NC(=O)[C@H](C)NC(=O)[C@H](CC(C)C)NC(=O)[C@H](CCCNC(=N)N)NC(=O)[C@H](C)NC(=O)[C@@H](NC(=O)[C@H](C)NC(=O)[C@@H]1CSSC[C@H](NC(=O)[C@H](CCCNC(=N)N)NC(=O)CC[C@H](NC(=O)CCCCCCCCCCCCCCCCCCC(=O)O)C(=O)O)C(=O)N[C@@H](CC(=O)O)C(=O)N[C@@H]([C@@H](C)O)C(=O)N[C@@H](C)C(=O)N[C@@H]([C@@H](C)O)C(=O)N1)[C@@H](C)O [Compound 145, [19CD]-isoGlu-RC()DTATC()ATARLAEFLHRSSSSF-Gly(Me)-A-Ile(Me)-LSSTEVGSETP-NH2] ({C20 diacid-γGlu}-RCDTATCATARLAEFLHRSSSSF[Sar]A[NMeI]LSSTEVGSETP-NH2; disulfide 2-7) |  | 92 | SS (SS indicates solubility ≥ 1mg/ml) | SS (SS indicates solubility ≥ 1mg/ml) | SS (SS indicates solubility ≥ 1mg/ml) | SS (SS indicates solubility ≥ 1mg/ml) | SS (SS indicates solubility ≥ 1mg/ml) | SS (SS indicates solubility ≥ 1mg/ml) | SS (SS indicates solubility ≥ 1mg/ml) | 220
4 | CC[C@H](C)[C@@H](C(=O)N[C@@H](CC(C)C)C(=O)N[C@@H](CO)C(=O)N[C@@H](CO)C(=O)N[C@H](C(=O)N[C@@H](CCC(=O)O)C(=O)N[C@H](C(=O)NCC(=O)N[C@@H](CO)C(=O)N[C@@H](CCC(=O)O)C(=O)N[C@H](C(=O)N1CCC[C@H]1C(N)=O)[C@@H](C)O)C(C)C)[C@@H](C)O)N(C)C(=O)[C@H](C)NC(=O)CN(C)C(=O)[C@H](Cc1ccccc1)NC(=O)[C@H](CO)NC(=O)[C@H](CO)NC(=O)[C@H](CO)NC(=O)[C@H](CO)NC(=O)[C@H](CCCNC(=N)N)NC(=O)[C@H](Cc1c[nH]cn1)NC(=O)[C@H](CC(C)C)NC(=O)[C@H](Cc1ccccc1)NC(=O)[C@H](CCC(=O)O)NC(=O)[C@H](C)NC(=O)[C@H](CC(C)C)NC(=O)[C@H](CCCNC(=N)N)NC(=O)[C@H](C)NC(=O)[C@@H](NC(=O)[C@H](C)NC(=O)[C@@H]1CSSC[C@H](NC(=O)[C@H](CCCNC(=N)N)NC(=O)CC[C@H](NC(=O)CCCCCCCCCCCCCCCCCCC(=O)O)C(=O)O)C(=O)N[C@@H](CCC(=O)O)C(=O)N[C@@H]([C@@H](C)O)C(=O)N[C@@H](C)C(=O)N[C@@H]([C@@H](C)O)C(=O)N1)[C@@H](C)O [Compound 146, [19CD]-isoGlu-RC()ETATC()ATARLAEFLHRSSSSF-Gly(Me)-A-Ile(Me)-LSSTEVGSETP-NH2] ({C20 diacid-γGlu}-RCETATCATARLAEFLHRSSSSF[Sar]A[NMeI]LSSTEVGSETP-NH2; disulfide 2-7) |  | 92 | SS (SS indicates solubility ≥ 1mg/ml) | SS (SS indicates solubility ≥ 1mg/ml) | SS (SS indicates solubility ≥ 1mg/ml) | SS (SS indicates solubility ≥ 1mg/ml) | SS (SS indicates solubility ≥ 1mg/ml) | SS (SS indicates solubility ≥ 1mg/ml) | SS (SS indicates solubility ≥ 1mg/ml) | 150
